Counter-ions that a name gives are not always drawn.

Drawing on patent US20250320224A1 (DOMAIN THERAPEUTICS, priority 2022, published 2025), this text covers IC50 for 19 compounds.

In the assay the target is T1, human PAR-2 (hPAR-2) receptor (Homo sapiens, UniProt P55085).
T1 construct: expressed in HEK-293 cells in an endogenous manner; endogenous in cells; host or cells: HEK-293
T1 sequence (P55085 26-397): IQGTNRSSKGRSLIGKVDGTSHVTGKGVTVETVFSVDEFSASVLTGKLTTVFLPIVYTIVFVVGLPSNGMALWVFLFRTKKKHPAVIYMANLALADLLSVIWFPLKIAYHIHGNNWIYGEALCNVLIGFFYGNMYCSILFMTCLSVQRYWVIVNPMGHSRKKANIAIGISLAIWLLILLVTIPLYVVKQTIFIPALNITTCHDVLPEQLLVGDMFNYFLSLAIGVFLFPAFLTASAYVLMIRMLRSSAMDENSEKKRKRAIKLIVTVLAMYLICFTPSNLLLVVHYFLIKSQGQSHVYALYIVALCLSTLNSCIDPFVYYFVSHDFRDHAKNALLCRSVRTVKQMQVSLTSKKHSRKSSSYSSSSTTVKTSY
Briefly: In vitro human PAR-2 functional antagonist activity using calcium assays. In kind it is cell-based. The settings on record: hPAR-2 endogenously expressed in HEK-293 cells; stimulated by 2-Furoyl-LIGRLO-NH2 peptide; Fluo4AM intracellular calcium, FLIPR Tetra. As to the method:
Example 283: In Vitro Human PAR-2 Functional Antagonist Activity Using Calcium Assays
Examples of the present invention were tested successively for their agonist and antagonist activities on human PAR-2 (hPAR-2) receptor expressed in HEK-293 cells in an endogenous manner. Compounds exert agonist activity if, by themselves in absence of the 2-Furoyl-LIGRLO-NH2 peptide (selective hPAR-2 agonist), they activate PAR-2; they exert antagonist activity if they decrease the action of the 2-Furoyl-LIGRLO-NH2 peptide on the receptor. The assay used to determine compound activity is based on calcium measurement.
Cell Culture: HEK-293 cells were maintained in Dulbecco's Modified Eagle's Medium supplemented with 10% Foetal Calf Serum, 1% Penicillin/Streptomycin at 37° C./5% CO2. Flasks for tests (F75) are seeded with 6e+06 cells 24 h before the experiment at 37° C./5% CO2.
Calcium assay: Receptor activity was detected by changes in intracellular calcium measured using the fluorescent Ca^2+ sensitive dye, Fluo4AM (Molecular Probes).
The day of the assay, medium was replaced by assay buffer (HBSS 1× (Gibco 14175-053), Hepes 20 mM, MgSO4-7H2O 1 mM, Na2CO3 3.3 mM, CaCl2—2H2O 2.6 mM, 0.5% bovine serum albumin (BSA), Probenecid 2.5 mM, 0.1 mg/mL Pluronic Acid) and complemented with 1 μM Fluo4AM and cells were incubated during 1:30 h at 37° C.
Cells were then detached, resuspended in assay buffer and seeded in 384 wells, transparent-flat bottom black walled plates (2e+04 cells per well). Plates were incubated at +22° C. for 20 min. Compounds stock solutions were prepared in 100% DMSO and dilutions in test buffer were carried out in polypropylene plates with a digital dispenser (D300e, Tecan). Compounds were added to the cells and intracellular Ca^2+ measurements were collected at the same time on FLIPR Tetra® (Molecular Devices) with specific filters (Exc: 470-495 nm/Em: 515-575 nm).
Agonist and antagonist activities of compounds were consecutively evaluated on the same cell plate. Agonist activity was first measured after 10 min incubation with the compound alone. Then, cells were stimulated by an […] of the 2-Furoyl-LIGRLO-NH2 peptide and fluorescence was recorded for an additional 5 min. EC50 of the 2-Furoyl-LIGRLO-NH2 peptide was the concentration giving 80% of the maximal 2-Furoyl-LIGRLO-NH2 response. Agonist activities are evaluated in comparison to basal signals evoked by assay buffer or maximal 2-Furoyl-LIGRLO-NH2 response. […] Antagonist activities are evaluated in comparison to basal signals evoked by assay buffer or EC50 of 2-Furoyl-LIGRLO-NH2 alone.

As for `Cc1cc(N2CCN(C(=O)c3ccc4c(n3)OC(C)(C)CN(c3ccc(Cl)c(F)c3)C4)C(C)(C)C2)nc(C)c1C(=O)O` [Example 87, 6-(4-(4-(4-chloro-3-fluorophenyl)-2,2-dimethyl-2,3,4,5-tetrahydropyrido[3,2-f][1,4]oxazepine-8-carbonyl)-3,3-dimethylpiperazin-1-yl)-2,4-dimethylnicotinic acid], the IC50 was > 10000 nM.

As for `Cc1ccc(N2CCN(C(=O)c3ccc4c(n3)C(C)(C)CN4c3ccc(Cl)c(F)c3)C(C)(C)C2)nc1C(=O)O` [Example 140, 6-(4-(1-(4-chloro-3-fluorophenyl)-3,3-dimethyl-2,3-dihydro-1H-pyrrolo[3,2-b]pyridine-5-carbonyl)-3,3-dimethylpiperazin-1-yl)-3-methylpicolinic acid], the IC50 was < 500 nM.

Take `CN1CCN(C(=O)c2csc(N3CCN(C(=O)c4ccc5c(n4)C(C)(C)CN5c4ccc(Cl)c(F)c4)C(C)(C)C3)n2)CC1` [Example 101, (1-(4-chloro-3-fluorophenyl)-3,3-dimethyl-2,3-dihydro-1H-pyrrolo[3,2-b]pyridin-5-yl)(2,2-dimethyl-4-(4-(4-methylpiperazine-1-carbonyl)thiazol-2-yl)piperazin-1-yl)methanone hydrochloride]: the IC50 is < 500 nM.

Regarding `CC1(C)CN(c2ccc(Cl)c(F)c2)c2ccc(C(=O)N3CC4(C3)CN(c3ccc(C(=O)O)cn3)C4)nc21` [Example 123, 6-(6-(1-(4-chloro-3-fluorophenyl)-3,3-dimethyl-2,3-dihydro-1H-pyrrolo[3,2-b]pyridine-5-carbonyl)-2,6-diazaspiro[3.3]heptan-2-yl)nicotinic acid], the IC50 is > 10000 nM.

Regarding `CC1(C)CN(c2ccc(Cl)c(F)c2)c2ccc(C(=O)N3CCN(c4ncc(C(=O)O)cn4)CC3(C)C)nc21` [Example 41, 2-(4-(1-(4-chloro-3-fluorophenyl)-3,3-dimethyl-2,3-dihydro-1H-pyrrolo[3,2-b]pyridine-5-carbonyl)-3,3-dimethylpiperazin-1-yl)-pyrimidine-5-carboxylic acid hydrochloride], the IC50 was < 500 nM.

With `CC1(C)C(=O)NCCN1C(=O)c1ccc2c(n1)C1(CCCC1)CN2c1cccc(Cl)c1` [Example 9, 4-(1′-(3-chlorophenyl)-1′,2′-dihydrospiro[cyclopentane-1,3′-pyrrolo[3,2-b]pyridine]-5′-carbonyl)-3,3-dimethylpiperazin-2-one], the 50% inhibitory concentration (IC50) was < 500 nM.

Consider `CCN1CCN(C(=O)c2ccc3c(n2)C(C)(C)CN3c2ccc(Cl)c(F)c2)C(C)(C)C1=O` [Example 19, 4-(1-(4-chloro-3-fluorophenyl)-3,3-dimethyl-2,3-dihydro-1H-pyrrolo[3,2-b]pyridine-5-carbonyl)-1-ethyl-3,3-dimethylpiperazin-2-one], for which the IC50 was < 500 nM.

As to `Cc1cc(N2CCN(C(=O)c3cnc4c(n3)C(C)(C)CN4CCc3ccc(F)cc3)C(C)(C)C2)nc(C)c1C(=O)O` [Example 213], the IC50 is 500 to 10000 nM.

On to `Cc1cc(N2CCN(C(=O)c3cnc4c(n3)C(C)(C)CN4c3ccc(C(F)(F)F)c(Cl)c3)C(C)(C)C2)nc(C)c1C(=O)O` [Example 193, 6-(4-(5-(3-chloro-4-(trifluoromethyl)phenyl)-7,7-dimethyl-6,7-dihydro-5H-pyrrolo[2,3-b]pyrazine-2-carbonyl)-3,3-dimethylpiperazin-1-yl)-2,4-dimethylnicotinic acid], for which the IC50 is < 500 nM.

Take `CC1(C)CN(c2ccc(Cl)c(F)c2)c2ncc(C(=O)N3CCN(c4ccc(CC(=O)O)cn4)CC3(C)C)nc21` [Example 173, 2-(6-(4-(5-(4-chloro-3-fluorophenyl)-7,7-dimethyl-6,7-dihydro-5H-pyrrolo[2,3-b]pyrazine-2-carbonyl)-3,3-dimethylpiperazin-1-yl)pyridin-3-yl)acetic acid]: the IC50 was < 500 nM.

With `CC1(C)CN(c2ccc(Cl)c(F)c2)c2ccc(C(=O)N3CCC(C(=O)O)CC3)nc21` [Example 33, 1-(1-(4-chloro-3-fluorophenyl)-3,3-dimethyl-2,3-dihydro-1H-pyrrolo[3,2-b]pyridine-5-carbonyl)piperidine-4-carboxylic acid], the IC50 was 500 to 10000 nM.

For the compound `CN(c1ccc(C(=O)O)cn1)C1CCCN(C(=O)c2ccc3c(n2)C(C)(C)CN3c2ccc(Cl)c(F)c2)C1` (stereo not shown) [Example 111, 6-((1-(1-(4-chloro-3-fluorophenyl)-3,3-dimethyl-2,3-dihydro-1H-pyrrolo[3,2-b]pyridine-5-carbonyl)piperidin-3-yl)(methyl)amino)nicotinic acid hydrochloride], the IC50 fell in the range of 500 to 10000 nM.

For the compound `CC1(C)CC2(CN(c3ccc(Cl)c(F)c3)c3ncc(S(=O)(=O)N4CCC(N5CCNC5=O)CC4)nc32)C1` [Example 266, 1-(1-((5′-(4-chloro-3-fluorophenyl)-3,3-dimethyl-5′,6′-dihydrospiro[cyclobutane-1,7′-pyrrolo[2,3-b]pyrazin]-2′-yl)sulfonyl)piperidin-4-yl)imidazolidin-2-one], the IC50 was > 10000 nM.

Consider `COCC1CC2(C1)CN(c1ccc(Cl)c(F)c1)c1ccc(C(=O)N3CCN(c4ccc(CC(=O)O)cn4)CC3(C)C)nc12` (stereo not shown) [Example 239, 2-(6-(4-(1′-(4-chloro-3-fluorophenyl)-3-(methoxymethyl)-1′,2′-dihydrospiro[cyclobutane-1,3′-pyrrolo[3,2-b]pyridine]-5′-carbonyl)-3,3-dimethylpiperazin-1-yl)pyridin-3-yl)acetic acid], for which the half-maximal inhibitory concentration (IC50) is < 500 nM.

Turning to `Cc1cc(N2CCN(C(=O)c3cnc4c(n3)C(C)(C)CN4c3ccc(F)c(F)c3)C(C)(C)C2)nc(C)c1C(=O)O` [Example 181, 6-(4-(5-(3,4-difluorophenyl)-7,7-dimethyl-6,7-dihydro-5H-pyrrolo[2,3-b]pyrazine-2-carbonyl)-3,3-dimethylpiperazin-1-yl)-2,4-dimethylnicotinic acid], the half-inhibitory concentration (IC50) is < 500 nM.

For `CCOC(=O)CCCC(=O)N1CCN(C(=O)c2ccc3c(n2)C(C)(C)CN3c2ccc(Cl)c(F)c2)C(C)(C)C1` [Example 27, ethyl 5-(4-(1-(4-chloro-3-fluorophenyl)-3,3-dimethyl-2,3-dihydro-1H-pyrrolo[3,2-b]pyridine-5-carbonyl)-3,3-dimethylpiperazin-1-yl)-5-oxopentanoate], the IC50 was < 500 nM.

Regarding `CC1(C)CN(c2ccc(Cl)c(Cl)c2)c2ncc(C(=O)N3CCN(c4ccc(CC(=O)O)cn4)CC3(C)C)nc21` [Example 221, 2-(6-(4-(5-(3,4-dichlorophenyl)-7,7-dimethyl-6,7-dihydro-5H-pyrrolo[2,3-b]pyrazine-2-carbonyl)-3,3-dimethylpiperazin-1-yl)pyridin-3-yl)acetic acid], the IC50 is < 500 nM.

With `CC1(C)CN(c2ccc(Cl)c(F)c2)c2ncc(C(=O)N3CCN(c4ccc(CC(=O)O)cn4)CC3(C)C)nc2O1` [Example 268, 2-(6-(4-(4-(4-chloro-3-fluorophenyl)-2,2-dimethyl-3,4-dihydro-2H-pyrazino[2,3-b][1,4]oxazine-7-carbonyl)-3,3-dimethylpiperazin-1-yl)266yridine-3-yl)acetic acid], the half-maximal inhibitory concentration (IC50) is > 10000 nM.

For `Cc1cc(N2CCN(C(=O)c3cnc4c(n3)C3(CN4c4ccc(Cl)c(F)c4)CC(C)(C)C3)C(C)(C)C2)nc(C)c1C(=O)O` [Example 247, 6-(4-(5′-(4-chloro-3-fluorophenyl)-3,3-dimethyl-5′,6′-dihydrospiro[cyclobutane-1,7′-pyrrolo[2,3-b]pyrazine]-2′-carbonyl)-3,3-dimethylpiperazin-1-yl)-2,4-dimethylnicotinic acid], the IC50 was < 500 nM.
